Where “and” joins values, the source holds several entries; their conditions need not be identical. Identical values can stand only once. Like-named read-outs stand apart in the source and are kept apart here.
Molecular target: SARS-CoV-2 NSP3 macrodomain (Mac1) (Severe acute respiratory syndrome coronavirus 2, UniProt P0DTD1)
Format: binding
[1] = DMSO background map; event 1; soak concentration 10 mM
[2] = DMSO background map; soak concentration 10 mM
[3] = PanDDA background density correction factor
[4] = TRUE = ligand-bound crystal structure obtained (PDB code given)
[5] = crystal soak concentration 20 mM, DMSO background map
[6] = crystal soak concentration 20 mM, DMSO background map, event 1
[7] = crystal soak concentration 20 mM, P43 crystals
[8] = crystal soak, P43 crystals; soak concentration 10 mM
[9] = crystal soak, P43 crystals; soak concentration 10 mM for the hits shown
[10] = ligand conformations modeled in the crystal structure
[11] = refined crystallographic occupancy
[12] = site of Mac1 occupied in the X-ray crystal structure (Adenosine or Distal)
[13] = PanDDA background density correction, 1-BDC
[14] = soak concentration 10 mM, DMSO background map
[15] = soak concentration 10 mM, P43 crystals
[16] = soak concentration 3 mM, DMSO background map
[17] = soak concentration 3 mM, P43 crystals
[18] = crystal soak 10 mM, P43 crystal form
[19] = crystal soak 10 mM; DMSO background map

Structure (SMILES) | Occupancy difference (refined_occupancy - 2*(1-BDC)) | PanDDA run, DMSO background map: 1-BDC [1] | PanDDA run, DMSO background map: Hit [2] | 1-BDC [3] | X-ray crystal structure [4] | Hit (PanDDA run, DMSO background map) [5] | 1-BDC (PanDDA run, DMSO background map) [6] | Hit (PanDDA run, overall) [7] | Modeling comment (PanDDA run, overall) [7] | PanDDA run, overall: Hit [9] | Total number of conformations [10] | 2*(1-BDC) (%) (occupancy estimate from PanDDA) | Refined ligand occupancy (%) [11] | Binding site [12] | PanDDA run, DMSO background map: 1-BDC [14] | PanDDA run, DMSO background map: Hit [14] | PanDDA run, overall: Hit [15] | also measured
O=C(O)C1CCCN1S(=O)(=O)c1cccc2nsnc12 (stereo not drawn) [AVI-2] | 10 | 0.2 | TRUE | 0.2 | TRUE | TRUE | 0.22 | TRUE | Duplicate, not modeled | TRUE | 1 | 40% | 50% | Adenosine | – | – | – | PanDDA run, DMSO background map: Modeled [2]: TRUE; PanDDA run, overall: Modeled [8]: TRUE
c1ccc(-n2nnnc2CSc2nnc(NC3CC3)s2)cc1 [AVI-286] | 0 | 0.11 | TRUE | 0.11 | TRUE | – | – | – | – | TRUE | 1 | 22% | 22% | Distal | – | – | – | PanDDA run, DMSO background map: Modeled [2]: TRUE; PanDDA run, overall: Modeled [8]: TRUE
O=C(O)C(c1ccccc1)n1sc2ccccc2c1=O (stereo not drawn) [AVI-288] | – | 0.26 | TRUE | – | TRUE | TRUE | 0.37 | TRUE | – | TRUE | – | 74% | – | Adenosine | – | – | – | 1-BDC [13]: 0.37; Modeled (PanDDA run, DMSO background map) [5]: TRUE; Modeled (PanDDA run, overall) [7]: TRUE; PanDDA run, overall: Modeling comment [8]: Duplicate, not modeled; Refined ligand occupancy (%) (crystallographic refinement): 74%
CC(C)n1nnnc1SCc1c(C(=O)O)sc2cccc(F)c12 [AVI-291] | – | 0.25 | TRUE | – | TRUE | TRUE | 0.34 | TRUE | Second ligand conformation, not modeled, DMSO x2 | TRUE | – | 68% | – | Adenosine | – | – | – | 1-BDC [13]: 0.34; Modeled (PanDDA run, DMSO background map) [5]: TRUE; Modeled (PanDDA run, overall) [7]: TRUE; PanDDA run, overall: Modeling comment [8]: Duplicate, not modeled; Refined ligand occupancy (%) (crystallographic refinement): 68%
Nc1nnc(SCCn2c(=O)oc3ccccc32)s1 [AVI-296] | 0 | 0.06 | TRUE | 0.06 | TRUE | – | – | – | – | TRUE | 1 | 12% | 12% | Distal | – | – | – | PanDDA run, DMSO background map: Modeled [2]: TRUE; PanDDA run, overall: Modeled [8]: TRUE
CCn1c(C)nnc1Sc1cnc2ccccc2n1 [AVI-297] | – | 0.05 | TRUE | – | – | – | – | – | – | TRUE | – | – | – | – | – | – | – | PanDDA run, overall: Modeling comment [8]: Only density for quinoxaline, not modeled
CC1CC(C(=O)O)CCN1C(=O)c1ccc2c(c1)OCC(=O)N2 (stereo not drawn) [AVI-303] | 0 | 0.13 | TRUE | 0.13 | TRUE | TRUE | 0.19 | TRUE | Duplicate, not modeled | TRUE | 1 | 26% | 26% | Adenosine | – | – | – | PanDDA run, DMSO background map: Modeled [2]: TRUE; PanDDA run, overall: Modeled [8]: TRUE
COc1ccc(NC(=O)NC2CCCC2)cc1-n1nnnc1C [AVI-311] | – | – | – | – | – | TRUE | 0.12 | TRUE | Weak density, not modeled | – | – | – | – | – | 0.09 | TRUE | TRUE | PanDDA run, overall: Modeling comment [15]: Weak density, not modeled
O=C(Nc1ccsc1C(=O)O)c1ccc2c(c1)OCO2 [AVI-316] | 0 | – | – | 0.07 | TRUE | TRUE | 0.12 | TRUE | Duplicate, not modeled | – | 1 | 14% | 14% | Adenosine | 0.07 | TRUE | TRUE | PanDDA run, DMSO background map: Modeled [14]: TRUE; PanDDA run, overall: Modeled [15]: TRUE
Cc1sc2ncnc(Sc3ccccc3C(=O)O)c2c1C [AVI-317] | 30 | – | – | 0.15 | TRUE | – | – | – | – | – | 2 | 30% | 60% | Adenosine | 0.17 and 0.15 | TRUE | TRUE | PanDDA run, DMSO background map: Modeled [14]: TRUE; PanDDA run, overall: Modeled [15]: TRUE; PanDDA run, overall: Modeling comment [15]: Duplicate, not modeled
Cc1c(C)n(Cc2ccccc2)c2ncnc(N)c12 [AVI-321] | 0 | – | – | 0.08 | TRUE | – | – | – | – | – | 1 | 16% | 16% | Adenosine | – | – | – | PanDDA run, DMSO background map: 1-BDC [16]: 0.08; PanDDA run, DMSO background map: Hit [16]: TRUE; PanDDA run, DMSO background map: Modeled [16]: TRUE; PanDDA run, overall: Hit [17]: TRUE; PanDDA run, overall: Modeled [17]: TRUE
Cc1cc2c(=O)n(CCN3C(=O)c4ccccc4S3(=O)=O)nnc2s1 [AVI-341] | 14 | – | – | 0.18 | TRUE | TRUE | 0.19 | TRUE | Duplicate, not modeled | – | 1 | 36% | 50% | Adenosine | 0.18 | TRUE | TRUE | PanDDA run, DMSO background map: Modeled [14]: TRUE; PanDDA run, overall: Modeled [15]: TRUE
CNc1ccc(NS(=O)(=O)c2cc3cccc(C)c3s2)cn1 [AVI-345] | – | – | – | – | TRUE | TRUE | 0.26 | TRUE | – | – | – | 52% | – | Adenosine | 0.17 | TRUE | TRUE | 1-BDC [13]: 0.26; Modeled (PanDDA run, DMSO background map) [5]: TRUE; Modeled (PanDDA run, overall) [7]: TRUE; Refined ligand occupancy (%) (crystallographic refinement): 52%; PanDDA run, overall: Modeling comment [15]: Duplicate, not modeled
CC1CCN(C(=O)c2ccc3c(c2)nc(CO)n3C)CC1C(=O)O (stereo not drawn) [AVI-348] | 0 | – | – | 0.25 | TRUE | TRUE | 0.34 | TRUE | Duplicate, not modeled | – | 1 | 50% | 50% | Adenosine | 0.25 | TRUE | TRUE | PanDDA run, DMSO background map: Modeled [14]: TRUE; PanDDA run, overall: Modeled [15]: TRUE
OC[C@@H]1C[C@H](F)CN1c1ncnc2[nH]ccc12 [AVI-609] | 0 | – | – | 0.17 | – | – | – | – | – | – | 1 | 34% | 34% | – | – | – | – | PanDDA run, overall: Hit [18]: TRUE; PanDDA run, DMSO background map: 1-BDC [19]: 0.17; PanDDA run, DMSO background map: Hit [19]: TRUE; X-ray crystal structure (ligand-bound crystal structure obtained (TRUE)): TRUE; Binding site (site occupied in X-ray crystal structure): Adenosine
NC(=O)C1(O)CCN(c2ncnc3[nH]ccc23)C1 (stereo not drawn) [AVI-611] | 0 | – | – | 0.22 | – | – | – | – | – | – | 2 | 44% | 44% | – | – | – | – | X-ray crystal structure (TRUE = crystal structure with ligand obtained): TRUE; PanDDA run, overall: Hit [18]: TRUE; PanDDA run, DMSO background map: 1-BDC [19]: 0.22; PanDDA run, DMSO background map: Hit [19]: TRUE; Binding site (site of Mac1 occupied in the X-ray crystal structure): Adenosine

From paper PMC12118597 (Science Advances, 2025)
